US20260151316A1, “FIBRILLIN PRODUCTION PROMOTER, COSMETIC COMPOSITION OR SKIN TOPICAL AGENT, ORALLY ADMINISTERED AGENT, AND ELASTIN FIBER PRODUCTION PROMOTER” (YAMASA CORPORATION, priority 2022, published 2026)

Assays:
[1] = test system: fibrillin-1 production in normal human fibroblasts (NHDF); assay: Fibrillin-1 quantification by ELISA, direct treatment of normal human fibroblasts with sample; type: cell-based; settings: Example 1, FIG. 1 versus FIG. 2 (direct treatment and K-CM)
Method: Normal human fibroblasts (NHDF; Kurabo) were seeded in a 96-well plate at a density of 2.55×10^4 cells/well/100 μL and cultured at 37° C. for 24 hours. The medium was then replaced with 100 μL of media (HuMedia-KG2; Kurabo) adjusted to contain 0, 2.5, 5 (mM) (i.e., 0, 0.0918, 0.184 (w/v %) ) of CMP, 2Na and 0, 2.5, 5 (MM) (i.e., 0, 0.092, 0.184 (w/v %) ) of UMP, 2Na, and cultured for 24 hours.
The culture supernatant from normal human fibroblasts was collected and an amount of fibrillin-1 was quantified by ELISA. The protein amount of the culture supernatant was also measured by BCA protein assay.

[2] = test system: Fibrillin-1 (FBN-1) mRNA in normal human fibroblasts; assay: FBN-1 mRNA expression by real time PCR in fibroblasts treated with culture supernatant from three-dimensional cultured epidermis; type: cell-based; settings: CMP, 2Na 1.0 and 2.0 (w/v %) applied to three-dimensional cultured epidermis; supernatant on NHDF; GAPDH as control
Method: The mRNA expression level of Fibrillin 1(FBN1 ), a factor related to elastin synthesis, was quantified by real-time PCR. Three-dimensional cultured epidermis (LabCyte EPI MODEL 24; manufactured by J TEC) was set in a 24-well plate to which 500 μL of the attached assay medium was added, and conditioned overnight at 37° C. 50 μL of sample-containing PBS (−) was applied from the stratum corneum side and cultured for 24 hours. After removing the sample-containing PBS (−), the plate was washed with PBS (−). The medium was replaced with a fresh medium, 50 μL of sample-containing PBS (−) was newly applied from the stratum corneum side, and further cultured for 48 hours. After culturing, the culture supernatant was collected. The concentrations of CMP, 2Na in the respective samples were 0, 1.0, and 2.0 (w/v %), respectively. Normal human fibroblasts were treated with the culture supernatant by the same method as that of Example 1. RNA was extracted from NHDF using RNeasy Mini Kit (QIAGEN), and mRNA expression analysis for Fibrillin-1 (FBN-1) was performed by real time PCR ([…]). Glyceraldehyde 3-phosphate dehydrogenase (GAPDH) was used as an endogenous control.

[3] = test system: elastin fibers in freshly extracted human skin; assay: Ex vivo evaluation test using freshly extracted human skin, elastica-van Gieson staining of elastin fibers; settings: abdominal skin, CMP, 2Na 1.0 and 2.0 (w/v %) applied from the stratum corneum side, 72 hours
Method: Abdominal skin tissue was used, which was taken from a patient during cosmetic surgery, after obtaining informed consent for use in research. The extracted skin was placed in a culture plate supplemented with 1.3 ml of D-MEM/Ham's F-12 medium, and conditioned overnight at 37° C. in 5% CO2. An appropriate amount of PBS (−) containing a given concentration of each sample was applied from the stratum corneum side, and further cultured for 24 hours. The treatment was continued for a total of 72 hours while replacing the sample and medium with fresh ones every 24 hours. The concentrations of CMP, 2Na in the respective samples were 0, 1.0, and 2.0 (w/v %). After the cultured skin tissue was fixed according to a standard method, skin tissue sections were prepared, elastin fibers were stained with elastica-van Gieson stain, and observed under a microscope.

Row | Structure (SMILES) | effect of promoting fibrillin production, cytidylic acid treatment compared with uridylic acid treatment [1] | expression level of FBN-1 mRNA [2] | density of elastin fibers (elastica-van Gieson staining) [3]
1 | Nc1ccn([C@@H]2O[C@H](COP(=O)(O)O)[C@@H](O)[C@H]2O)c(=O)n1 [cytidylic acid] | comparable | increased, depending on the concentration | tended to result in denser elastin fibers
2 | O=c1ccn([C@@H]2O[C@H](COP(=O)(O)O)[C@@H](O)[C@H]2O)c(=O)[nH]1 [uridylic acid] | comparable | – | –
